Experimental data from patent publication US8680147B2, “Compositions” (DSM IP Assets B.V., priority 2006, dated 2014).

Legend:
Format in all cases: cell-based
[1] = test system: Aggrecan; assay: Gene expression in human chondrocyte cells (SW1353), quantitative real-time PCR
Procedure: (§1) The cells were treated with IL-1β, which is one of the natural mediators that induce cartilage breakdown and is detected in substantial amounts in osteoarthritic cartilage tissues and cells derived thereof. Treatment of cells with IL-1β triggers the expression of genes that are involved in catabolic events, such as MMPs. Also, treatment of the cells with IL-1β reduces the collagen expression levels (compared to untreated cells)
(§2) Chondrocytes (SW1353; purchased from the […] [ATCC]) were grown in cell culture medium according to the instructions from ATCC. For experimental treatments, cells were seeded into 6-well plates and cultured for two days until they reached confluence. Total cellular RNA was extracted from cultured cells and reverse-transcribed as described by Richard et al. Mol. Nutr. Food Res. 49, 431-442, 2005. Expression levels of distinct genes were determined by quantitative real-time PCR as described in Richard et al. Mol. Nutr. Food Res. 49, 431-442, 2005.

[2] = test system: Human MMP-13; assay: as above
Procedure: as §1, §2

[3] = test system: Human MMP-1; assay: as above
Procedure: as §1, §2

[4] = test system: Human MMP-3; assay: as above
Procedure: as §1, §2

[5] = test system: Human collagen II; assay: as above
Procedure: as §1, §2

[6] = test system: human collagen 1; assay: as above
Procedure: as §1, §2

[7] = test system: psoriasin (S100 calcium-binding protein A7); assay: Gene expression in cytokine-stimulated keratinocytes, quantitative real time PCR; settings: for Psoriasin gene expression (in % of stimulated cells): keratinocytes, cytokine mix 24 hrs
Procedure: (§3) Keratinocytes were cultured in standard medium (SFM, invitrogen #1 7005075) until they reached confluence. Culture medium was then changed to assay medium (SFM without epidermal growth factor and pituary extract) and pre-incubated with the test compound for 2 hrs. In order to stimulate the cells, a cytokine mix (see Boniface et al. J. Immunol. 178, 4615-4622, 2007) was added and the cells were cultured for 24 hrs. At the end of the experiment, cells were washed; total RNA was extracted using Trizol reagents (Sigma T9424). The expression levels of specific genes (cytokeratin 10, β-defensin (defensin-β4) and psoriasin (or S100 calcium-binding protein A7) was performed by quantitative real time PCR, using the procedure described in other examples.

[8] = test system: β-defensin (defensin-β4); assay: as above; settings: for β-defensin gene expression (in % of stimulated cells): keratinocytes, cytokine mix 24 hrs
Procedure: as §3

[9] = cytokine-stimulated keratinocytes

COc1c(C(C)C)cc2c(c1O)[C@@]1(C(=O)O)CCCC(C)(C)[C@@H]1CC2 [Carnosic acid-12-methyl ether (I), (4aR,10aS)-carnosic acid 12-methyl ether]
Effect on expression of aggrecan (in words) [1]: stimulated the expression | Effect on expression of MMP-13 (in words) [2]: drastically reduced the expression | Effect on expression of MMP-1 (in words) [3]: drastically reduced the expression | Effect on expression of MMP-3 (in words) [4]: drastically reduced the expression | Effect on expression of human collagen 11 (in words) [5]: stimulated the expression | Effect on expression of human collagen 1 (in words) [6]: stimulated the expression | Psoriasin gene expression (in % of stimulated cells) ([7]; 0.1 μmol/L): 46 % of stimulated cells | Psoriasin gene expression (in % of stimulated cells) ([7]; 1.0 μmol/L): 58 % of stimulated cells | Psoriasin gene expression (in % of stimulated cells) ([7]; 5.0 μmol/L): 62 % of stimulated cells | Effect on psoriasin expression (in words) [7, 9]: dose-dependently reduced the expression | β-defensin gene expression (in % of stimulated cells) ([8]; 0.1 μmol/L): 49 % of stimulated cells | β-defensin gene expression (in % of stimulated cells) ([8]; 1.0 μmol/L): 47 % of stimulated cells | β-defensin gene expression (in % of stimulated cells) ([8]; 5.0 μmol/L): 28 % of stimulated cells | Effect on β-defensin expression (in words) [8, 9]: dose-dependently reduced the expression
